Source: US6380257B1, “Aromatic di-keto derivatives, processes for their production and their use as a pharmaceutical” (Aventis Pharma Deutschland GmbH, priority 1999, dated 2002)
Read-outs that look alike come from different tables or passages of the source. Blank lines part the entries; values can stand above or below the compound they belong to.

How the values were obtained:
[1] = target: T1, glucose-6-phosphate translocase from rat liver microsomes (Rattus norvegicus, UniProt F7EWB7); assay: Inhibition of glucose-6-phosphate translocase from rat liver microsomes; format: biochemical
T1 construct: glucose-6-phosphate translocase from rat liver microsomes; from tissue; host or cells: rat liver microsomes
T1 sequence (F7EWB7 1-429): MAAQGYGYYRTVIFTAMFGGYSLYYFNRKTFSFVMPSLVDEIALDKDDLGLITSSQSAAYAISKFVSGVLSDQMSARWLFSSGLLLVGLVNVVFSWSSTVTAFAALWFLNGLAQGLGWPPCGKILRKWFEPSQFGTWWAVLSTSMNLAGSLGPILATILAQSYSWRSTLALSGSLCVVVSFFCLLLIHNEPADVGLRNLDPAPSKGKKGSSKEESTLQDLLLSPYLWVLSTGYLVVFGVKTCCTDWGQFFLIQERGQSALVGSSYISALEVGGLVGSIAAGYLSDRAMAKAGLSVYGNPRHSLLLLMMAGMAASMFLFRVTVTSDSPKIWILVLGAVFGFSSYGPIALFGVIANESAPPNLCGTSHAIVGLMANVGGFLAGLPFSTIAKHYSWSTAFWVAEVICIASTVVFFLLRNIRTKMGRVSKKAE

[2] = target: T2, microsomal glucose-6-phosphatase (Rattus norvegicus, UniProt P43428); assay: Inhibition of microsomal glucose-6-phosphatase; format: biochemical
T2 construct: from tissue; host or cells: liver microsomes (rat inferred)
T2 sequence (P43428 1-357): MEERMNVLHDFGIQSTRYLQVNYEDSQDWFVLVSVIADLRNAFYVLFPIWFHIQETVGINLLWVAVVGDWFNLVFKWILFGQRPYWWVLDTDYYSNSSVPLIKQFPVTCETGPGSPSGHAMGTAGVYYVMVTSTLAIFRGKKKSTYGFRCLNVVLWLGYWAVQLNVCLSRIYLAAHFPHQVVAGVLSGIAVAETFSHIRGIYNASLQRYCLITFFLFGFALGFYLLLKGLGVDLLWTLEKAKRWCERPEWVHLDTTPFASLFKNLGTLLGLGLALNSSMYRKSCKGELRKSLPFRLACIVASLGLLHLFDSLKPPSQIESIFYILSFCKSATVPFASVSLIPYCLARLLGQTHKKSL

[3] = Stability of mumbaistatin in solution; format: physicochemical

IC50 ([1]; read-out: Inhibition of glucose-6-phosphate translocase: IC50): > 100000 nM
Compound: COC(=O)CC1CCC2(O1)OC1(OC(=O)c3c(OC)cc4c(c31)C(=O)c1c(O)cccc1C4=O)c1c(OC)cccc12 (stereo not shown) [XIXB]

IC50 ([1]; read-out: inhibits glucose-6-phosphate translocase with an IC50): ~1000 nM
Compound: NC(=O)c1c(O)cc2c(c1C(=O)c1c(O)cccc1C1(O)CCC(CC(=O)O)O1)C(=O)c1c(O)cccc1C2=O (stereo not shown) [XXIIIA]

IC50 ([1]; rat liver microsomes, listed as mumbaistain, read-out: Inhibition of glucose-6-phosphate translocase, IC50): ~5 nM
IC50 ([1]; rat liver microsomes, read-out: Inhibition of glucose-6-phosphate translocase, IC50): 5 nM
Inhibition of microsomal glucose-6-phosphatase in 10 μM solution [2]: activity was not demonstrable
stability in solution at acid pH ([3]; acid pH, conversion e.g. to compound of formula XIXD): rapidly undergoes a complex conversion
stability in solution ([3]; pH of around 6 to 9): limited stability
Compound: mumbaistatin
